The target in the assay is T1, F508delCFTR (Homo sapiens, UniProt P13569, DEL508-508).
T1 construct: expressed in transfected cells; host or cells: CFBE41o- (human lung derived epithelial cell line), doxycycline-inducible expression
Briefly: Cell Surface Expression-Horse Radish Peroxidase (CSE-HRP) assay. Format: cell-based. Particulars: CFBE41o-F508delCFTR-HRP cells; for Maximum % activity (with co-corrector): with co-corrector (2 μM); for Maximum % activity (with co-corrector) / Maximum % activity (without co-corrector): normalized to on-plate positive control, highest concentration 20 μM. An outline of the steps: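 Surface F508delCFTR-HRP was read by luminol luminescence after 18–24 h compound exposure at 33 °C, without or with 2 μM co-corrector. Doses were eight 3-fold steps from 20 μM, in doxycycline-induced (0.5 μg/mL, 72 h) CFBE41o- cells. % activity was scaled to the on-plate 2 μM positive control minus DMSO; EC50 came from a variable-slope sigmoid fit.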

[1] abbreviates: test compound without co-corrector, 18-24 hours at 33° C., read-out: EC50 (without co-corrector).
Where [2] appears, read: with co-corrector (2 μM of 3-[(2R,4R)-4-({[1-(2,2-difluoro-1,3-benzodioxol-5-yl)cyclopropyl]carbonyl}amino)-7-methoxy-3,4-dihydro-2H-chromen-2-yl]benzoic acid), read-out: EC50 (with co-corrector).

Structures are written as SMILES. Read-outs that look alike come from different tables or passages of the source.

T1 sequence (P13569 with tags, fused parts or gaps DEL508-508): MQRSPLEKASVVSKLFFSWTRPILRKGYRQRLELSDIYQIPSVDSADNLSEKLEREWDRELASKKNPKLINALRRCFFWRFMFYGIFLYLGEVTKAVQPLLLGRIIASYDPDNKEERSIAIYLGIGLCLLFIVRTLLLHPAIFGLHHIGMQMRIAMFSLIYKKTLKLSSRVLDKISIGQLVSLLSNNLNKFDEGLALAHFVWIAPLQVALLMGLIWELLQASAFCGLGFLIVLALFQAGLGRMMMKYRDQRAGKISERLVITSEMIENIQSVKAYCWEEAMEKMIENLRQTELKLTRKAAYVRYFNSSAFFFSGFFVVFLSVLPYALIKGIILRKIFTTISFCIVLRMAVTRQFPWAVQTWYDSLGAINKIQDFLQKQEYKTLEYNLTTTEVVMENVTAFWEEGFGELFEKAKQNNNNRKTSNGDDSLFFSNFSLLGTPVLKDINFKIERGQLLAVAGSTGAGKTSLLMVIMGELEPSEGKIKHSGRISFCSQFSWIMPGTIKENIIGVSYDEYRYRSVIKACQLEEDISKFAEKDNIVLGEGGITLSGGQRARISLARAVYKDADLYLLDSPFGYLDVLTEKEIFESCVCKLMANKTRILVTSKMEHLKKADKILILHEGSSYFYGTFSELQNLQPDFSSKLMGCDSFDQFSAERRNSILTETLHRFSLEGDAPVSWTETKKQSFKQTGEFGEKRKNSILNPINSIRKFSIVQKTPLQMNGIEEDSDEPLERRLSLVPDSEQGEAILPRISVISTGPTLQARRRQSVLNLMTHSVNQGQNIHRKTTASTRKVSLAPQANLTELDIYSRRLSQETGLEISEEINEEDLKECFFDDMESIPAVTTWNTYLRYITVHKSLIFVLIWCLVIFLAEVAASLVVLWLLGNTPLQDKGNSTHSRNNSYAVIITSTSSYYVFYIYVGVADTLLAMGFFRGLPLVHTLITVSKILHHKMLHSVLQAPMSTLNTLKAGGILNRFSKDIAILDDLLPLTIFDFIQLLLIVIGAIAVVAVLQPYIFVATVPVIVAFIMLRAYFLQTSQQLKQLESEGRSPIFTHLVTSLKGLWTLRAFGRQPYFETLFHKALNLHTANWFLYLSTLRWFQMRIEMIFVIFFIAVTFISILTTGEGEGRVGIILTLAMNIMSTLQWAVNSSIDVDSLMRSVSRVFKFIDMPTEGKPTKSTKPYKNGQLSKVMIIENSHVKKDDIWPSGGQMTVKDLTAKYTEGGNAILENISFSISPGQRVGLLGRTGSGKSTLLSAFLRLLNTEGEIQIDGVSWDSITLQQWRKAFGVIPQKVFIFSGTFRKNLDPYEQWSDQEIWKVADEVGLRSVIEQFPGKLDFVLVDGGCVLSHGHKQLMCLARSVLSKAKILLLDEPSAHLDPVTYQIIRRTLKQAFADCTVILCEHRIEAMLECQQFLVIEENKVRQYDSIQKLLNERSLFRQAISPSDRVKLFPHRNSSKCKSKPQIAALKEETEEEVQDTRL

As to `C=C(CO[C@H]1[C@H](C(C)(C)C)[C@@H](C(=O)O)N(C(=O)[C@@H]2CCCCO2)[C@H]1c1ccccc1C)c1cc(C(F)(F)F)ccc1OC` [Example 249, (2S,3R,4S,5S)-3-tert-butyl-4-({2-[2-methoxy-5-(trifluoromethyl)phenyl]prop-2-en-1-yl}oxy)-5-(2-methylphenyl)-1-[(2S)-oxane-2-carbonyl]pyrrolidine-2-carboxylic acid], the “Maximum % activity (with co-corrector)” value was “+++ (≥350)” and the “Maximum % activity (without co-corrector)” value is on record as “+++ (≥200)”. Also, the EC50 under setting [1] was in the range of 1000 to 10000 nM. In addition, under setting [2], the 50% effective concentration (EC50) was less than 1000 nM.
Regarding `COc1ncc(C(C)(C)C)cc1CO[C@H]1[C@H](C(C)(C)C)[C@@H](C(=O)O)N(C(=O)C2CCCCC2)[C@H]1c1cccnc1OC(C)C` [Example 250, (2S,3R,4S,5S)-3-tert-butyl-4-[(5-tert-butyl-2-methoxypyridin-3-yl)methoxy]-1-(cyclohexanecarbonyl)-5-{2-[(propan-2-yl)oxy]pyridin-3-yl}pyrrolidine-2-carboxylic acid], the “Maximum % activity (with co-corrector)” value is “+++ (≥350)”; the “Maximum % activity (without co-corrector)” value is “++ (≥100 and <200)”. In addition, the EC50 under setting [1] is less than 1000 nM. Moreover, the EC50 under setting [2] was less than 1000 nM.
Consider `COc1ccc(C(C)(C)C)cc1CO[C@H]1[C@H](C(C)(C)C)[C@@H](C(=O)O)N(C(=O)C2CCCCC2)[C@H]1c1cccnc1OC(C)C` [Example 251, (2S,3R,4S,5S)-3-tert-butyl-4-[(5-tert-butyl-2-methoxyphenyl)methoxy]-1-(cyclohexanecarbonyl)-5-{2-[(propan-2-yl)oxy]pyridin-3-yl}pyrrolidine-2-carboxylic acid], for which the “Maximum % activity (with co-corrector)” value is “+++ (≥350)” and the “Maximum % activity (without co-corrector)” value is “+++ (≥200)”. The EC50 under setting [1] is less than 1000 nM. Also, under setting [2], the half-maximal effective concentration (EC50) is less than 1000 nM.
Regarding `COc1nc2cc(C)cc(C)c2cc1CO[C@H]1[C@H](C(C)(C)C)[C@@H](C(=O)O)N(C(=O)C2CCCCC2)[C@H]1c1cccnc1OC(C)C` [Example 252, (2S,3R,4S,5S)-3-tert-butyl-1-(cyclohexanecarbonyl)-4-[(2-methoxy-5,7-dimethylquinolin-3-yl)methoxy]-5-{2-[(propan-2-yl)oxy]pyridin-3-yl}pyrrolidine-2-carboxylic acid], the “Maximum % activity (with co-corrector)” value was “+++ (≥350)” and the “Maximum % activity (without co-corrector)” value was “+++ (≥200)”. Further, the EC50 under setting [1] is 1000 to 10000 nM. In addition, the EC50 under setting [2] was 1000 to 10000 nM.
With `COc1nc2cc(C)cc(C)c2cc1CO[C@H]1[C@H](C(C)(C)C)[C@@H](C(=O)O)N(C(=O)OC(C)C)[C@H]1c1cccnc1OC(C)C` [Example 253, (2S,3R,4S,5S)-3-tert-butyl-4-[(2-methoxy-5,7-dimethylquinolin-3-yl)methoxy]-1-{[(propan-2-yl)oxy]carbonyl}-5-{2-[(propan-2-yl)oxy]pyridin-3-yl}pyrrolidine-2-carboxylic acid], the “Maximum % activity (with co-corrector)” value was “+++ (≥350)” and the “Maximum % activity (without co-corrector)” value is on record as “+++ (≥200)”. Also, the EC50 under setting [1] is 1000 to 10000 nM. In addition, the 50% effective concentration (EC50) under setting [2] was in the range of 1000 to 10000 nM.
For `CCc1ccccc1[C@H]1[C@@H](OCc2cc3ccccc3nc2OC)[C@H](C(C)(C)C)[C@@H](C(=O)O)N1C(=O)[C@@H]1CCCCO1` [Example 254, (2S,3R,4S,5S)-3-tert-butyl-5-(2-ethylphenyl)-4-[(2-methoxyquinolin-3-yl)methoxy]-1-[(2S)-oxane-2-carbonyl]pyrrolidine-2-carboxylic acid], the “Maximum % activity (with co-corrector)” value was “+++ (≥350)” and the “Maximum % activity (without co-corrector)” value is recorded as “+++ (≥200)”. The EC50 under setting [1] lay within 1000 to 10000 nM. For the same compound, the EC50 under setting [2] is less than 1000 nM.
On to `Cc1ccccc1[C@H]1[C@@H](OCc2nc3ccccc3n2C)[C@H](C(C)(C)C)[C@@H](C(=O)O)N1C(=O)[C@@H]1CCCCO1` [Example 255, (2S,3R,4S,5S)-3-tert-butyl-4-[(1-methyl-1H-benzimidazol-2-yl)methoxy]-5-(2-methylphenyl)-1-[(2S)-oxane-2-carbonyl]pyrrolidine-2-carboxylic acid], for which the “Maximum % activity (with co-corrector)” value is “++ (≥150 and <350)”; the “Maximum % activity (without co-corrector)” value is “+ (<100)”. Moreover, under setting [1], the EC50 is greater than 10000 nM. The concentration giving a half-maximal response (EC50) under setting [2] lay in the range of 1000 to 10000 nM.
For `COc1ncc(C2CCC2)cc1CO[C@H]1[C@H](C(C)(C)C)[C@@H](C(=O)O)N(C(=O)C2CCCCC2)[C@H]1c1cccc2c1OC(C)(C)C2` [Example 256, (2S,3R,4S,5S)-3-tert-butyl-4-[(5-cyclobutyl-2-methoxypyridin-3-yl)methoxy]-1-(cyclohexanecarbonyl)-5-(2,2-dimethyl-2,3-dihydro-1-benzofuran-7-yl)pyrrolidine-2-carboxylic acid], the “Maximum % activity (with co-corrector)” value was “+++ (≥350)” and the “Maximum % activity (without co-corrector)” value is given as “+ (<100)”. Moreover, under setting [1], the EC50 was in the range of 1000 to 10000 nM. The EC50 under setting [2] was less than 1000 nM.
For `COc1ncc(C(F)(F)F)cc1CO[C@H]1[C@H](C(C)(C)C)[C@@H](C(=O)O)N(C(=O)C2CCCCC2)[C@H]1c1cccc2c1OC(C)(C)C2` [Example 257, (2S,3R,4S,5S)-3-tert-butyl-1-(cyclohexanecarbonyl)-5-(2,2-dimethyl-2,3-dihydro-1-benzofuran-7-yl)-4-{[2-methoxy-5-(trifluoromethyl)pyridin-3-yl]methoxy}pyrrolidine-2-carboxylic acid], the “Maximum % activity (with co-corrector)” value was “++ (≥150 and <350)”; the “Maximum % activity (without co-corrector)” value was “+ (<100)”. For the same compound, under setting [1], the EC50 is less than 1000 nM. For the same compound, the EC50 under setting [2] was less than 1000 nM.
As for `COc1ncc(C(F)(F)F)cc1CO[C@H]1[C@H](C(C)(C)OC)[C@@H](C(=O)O)N(C(=O)C2CCCCC2)[C@H]1c1ccccc1C(C)C` [Example 258, (2S,3R,4S,5S)-1-(cyclohexanecarbonyl)-3-(2-methoxypropan-2-yl)-4-{[2-methoxy-5-(trifluoromethyl)pyridin-3-yl]methoxy}-5-[2-(propan-2-yl)phenyl]pyrrolidine-2-carboxylic acid], the “Maximum % activity (with co-corrector)” value is given as “+++ (≥350)” and the “Maximum % activity (without co-corrector)” value is “+++ (≥200)”. For the same compound, the EC50 under setting [1] is less than 1000 nM. Under setting [2], the 50% effective concentration (EC50) is less than 1000 nM.
Take `COc1ncc(C(F)(F)F)cc1CO[C@H]1[C@H](C(C)(C)OC)[C@@H](C(=O)O)N(C(=O)OC(C)C)[C@H]1c1ccccc1C(C)C` [Example 259, (2S,3R,4S,5S)-3-(2-methoxypropan-2-yl)-4-{[2-methoxy-5-(trifluoromethyl)pyridin-3-yl]methoxy}-1-{[(propan-2-yl)oxy]carbonyl}-5-[2-(propan-2-yl)phenyl]pyrrolidine-2-carboxylic acid]: the “Maximum % activity (with co-corrector)” value is “+++ (≥350)” and the “Maximum % activity (without co-corrector)” value is on record as “+++ (≥200)”. Besides, the EC50 under setting [1] is less than 1000 nM. Moreover, the half-maximal effective concentration (EC50) under setting [2] was less than 1000 nM.
With `COc1ncc(C(F)(F)F)cc1CO[C@H]1[C@H](C(C)(C)OC)[C@@H](C(=O)O)N(C(=O)[C@@H]2CCCCO2)[C@H]1c1ccccc1C(C)C` [Example 260, (2S,3R,4S,5S)-3-(2-methoxypropan-2-yl)-4-{[2-methoxy-5-(trifluoromethyl)pyridin-3-yl]methoxy}-1-[(2S)-oxane-2-carbonyl]-5-[2-(propan-2-yl)phenyl]pyrrolidine-2-carboxylic acid], the “Maximum % activity (with co-corrector)” value is recorded as “+++ (≥350)” and the “Maximum % activity (without co-corrector)” value is “+++ (≥200)”. The EC50 under setting [1] is less than 1000 nM. Besides, the EC50 under setting [2] is less than 1000 nM.
Turning to `COc1ccc(C(F)(F)F)cc1C(C)CO[C@H]1[C@H](C(C)(C)C)[C@@H](C(=O)O)N(C(=O)[C@@H]2CCCCO2)[C@H]1c1ccccc1C` (stereo partly drawn) [Example 261, (2S,3R,4S,5S)-3-tert-butyl-4-{2-[2-methoxy-5-(trifluoromethyl)phenyl]propoxy}-5-(2-methylphenyl)-1-[(2S)-oxane-2-carbonyl]pyrrolidine-2-carboxylic acid], the “Maximum % activity (with co-corrector)” value is “+++ (≥350)” and the “Maximum % activity (without co-corrector)” value was “+++ (≥200)”. Further, the EC50 under setting [1] fell in the range of 1000 to 10000 nM. Moreover, under setting [2], the EC50 is less than 1000 nM.
For `COc1ccc(C(F)(F)F)cc1[C@](O)(CO)CO[C@H]1[C@H](C(C)(C)C)[C@@H](C(=O)O)N(C(=O)[C@@H]2CCCCO2)[C@H]1c1ccccc1C` [Example 262, (2S,3R,4S,5S)-3-tert-butyl-4-{(2S)-2,3-dihydroxy-2-[2-methoxy-5-(trifluoromethyl)phenyl]propoxy}-5-(2-methylphenyl)-1-[(2S)-oxane-2-carbonyl]pyrrolidine-2-carboxylic acid], the “Maximum % activity (with co-corrector)” value is “++ (≥150 and <350)”; the “Maximum % activity (without co-corrector)” value is given as “+ (<100)”. Also, the EC50 under setting [1] lay in the range of 1000 to 10000 nM. In addition, under setting [2], the EC50 is 1000 to 10000 nM.
As to `COc1ccc(C(F)(F)F)cc1[C@@](O)(CO)CO[C@H]1[C@H](C(C)(C)C)[C@@H](C(=O)O)N(C(=O)[C@@H]2CCCCO2)[C@H]1c1ccccc1C` [Example 263, (2S,3R,4S,5S)-3-tert-butyl-4-{(2R)-2,3-dihydroxy-2-[2-methoxy-5-(trifluoromethyl)phenyl]propoxy}-5-(2-methylphenyl)-1-[(2S)-oxane-2-carbonyl]pyrrolidine-2-carboxylic acid], the “Maximum % activity (with co-corrector)” value was “++ (≥150 and <350)”; the “Maximum % activity (without co-corrector)” value was “+ (<100)”. In addition, under setting [1], the half-maximal effective concentration (EC50) was greater than 10000 nM. Further, under setting [2], the concentration giving a half-maximal response (EC50) was in the range of 1000 to 10000 nM.
